Numbers after ± are expanded uncertainties.
Details: Crystal; Adiabatic calorimetry

For C(#Cc1ccccc1)c1ccccc1 [1,2-diphenylethyne], the Triple point temperature was 332.02 ± 0.05 K.

Reference: the NIST ThermoML archive (doi:10.1021/je200673a)
